Experimental data reported in patent US8664257B2, “Oxygen-substituted 3-heteroaroylamino-propionic acid derivatives and their use as pharmaceuticals” (Sanofi, priority 2010, dated 2014).
pIC50: −log10 of the molar value. Where two headings read alike, the source gives them in different places.

Molecular target: T1, Recombinant human cathepsin A (Homo sapiens, UniProt P10619)
T1 construct: Recombinant human cathepsin A (residues 29-480, with a C-terminal 10-His tag); 10-His (C); purchased R&D Systems 1049-SE
T1 sequence (P10619 29-312 limits assumed): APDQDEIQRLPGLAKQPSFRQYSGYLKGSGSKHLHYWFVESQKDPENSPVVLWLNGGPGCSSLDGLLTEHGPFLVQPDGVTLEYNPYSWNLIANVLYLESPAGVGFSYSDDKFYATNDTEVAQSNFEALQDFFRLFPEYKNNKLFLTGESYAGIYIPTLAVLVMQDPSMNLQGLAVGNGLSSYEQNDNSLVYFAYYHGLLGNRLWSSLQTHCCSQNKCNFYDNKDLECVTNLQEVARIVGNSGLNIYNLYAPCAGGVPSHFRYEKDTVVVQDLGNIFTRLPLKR
T1 sequence (P10619 327-480 limits assumed): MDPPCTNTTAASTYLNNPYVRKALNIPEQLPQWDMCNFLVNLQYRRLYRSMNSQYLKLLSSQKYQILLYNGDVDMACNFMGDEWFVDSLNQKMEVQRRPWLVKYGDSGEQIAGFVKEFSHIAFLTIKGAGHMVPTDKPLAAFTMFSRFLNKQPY
Experiment: Cathepsin A inhibitory activity
Format: biochemical
Procedure, shortened: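 Read-out was microfluidic separation of cleaved vs. uncleaved Bodipy FL-bradykinin (2 μM), giving turnover, % inhibition and IC50. Compound and 833 ng/ml enzyme met for 15 min RT in pH 5.5 MES/DTT before substrate (15 min RT). The 29-480 His-tagged human enzyme was first activated by cathepsin L, then E-64 (10 μM).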

[1] = recombinant human cathepsin A 833 ng/ml, Bodipy FL-labeled bradykinin 2 μM, pH 5.5, read-out: CATH-A IC50
[2] = recombinant human cathepsin A, read-out: Activity (2): Cathepsin A inhibitory activity, IC50 class
[3] = read-out: Activity (2): Cathepsin A inhibitory activity (IC50 class)

Compound | pIC50 [1] | pIC50 [2] | pIC50 [3]
O=C(O)C[C@H](NC(=O)c1cc(O)n(-c2cccc(Cl)c2)n1)c1ccccc1Cl [Example 514, (S)-3-(2-Chloro-phenyl)-3-{[1-(3-chloro-phenyl)-5-hydroxy-1H-pyrazole-3-carbonyl]-amino}-propionic acid] | 6.52 | 6.00 to 7.00 | 
O=C(O)CC(NC(=O)c1cc(O)n(-c2ccc(Cl)cc2)n1)c1ccc(-c2ccccn2)cc1 (stereo not shown) [Example 515, 3-{[1-(4-Chloro-phenyl)-5-hydroxy-1H-pyrazole-3-carbonyl]-amino}-3-(4-pyridin-2-yl-phenyl)-propionic acid] | 6.62 | 6.00 to 7.00 | 
Cc1c(F)cccc1C(CC(=O)O)NC(=O)c1cc(O)n(-c2ccccc2F)n1 (stereo not shown) [Example 516, 3-(3-Fluoro-2-methyl-phenyl)-3-{[1-(2-fluoro-phenyl)-5-hydroxy-1H-pyrazole-3-carbonyl]-amino}-propionic acid] | 6.99 | 6.00 to 7.00 | 
O=C(O)CC(NC(=O)c1cc(O)n(-c2ccccc2F)n1)c1cc(F)ccc1F (stereo not shown) [Example 517] |  | 6.00 to 7.00 | 
O=C(O)CC(NC(=O)c1cc(O)n(-c2ccccc2F)n1)c1ccc(N2CCOCC2)cc1 (stereo not shown) [Example 518] |  | 4.52 to 6.00 | 
O=C(O)C[C@H](NC(=O)c1cc(O)n(-c2ccccc2F)n1)c1ccccc1Cl [Example 519] |  | 6.00 to 7.00 | 
COc1ccc(F)cc1C(CC(=O)O)NC(=O)c1cc(O)n(-c2cccc(F)c2)n1 (stereo not shown) [Example 520] |  | 6.00 to 7.00 | 
O=C(O)CC(NC(=O)c1cc(O)n(-c2cccc(F)c2)n1)c1ccc(-c2ccccn2)cc1 (stereo not shown) [Example 521] |  | 6.00 to 7.00 | 
O=C(O)C[C@H](NC(=O)c1cc(O)n(-c2cccc(F)c2)n1)c1ccccc1Cl [Example 522] |  | 6.00 to 7.00 | 
Cc1c(F)cccc1C(CC(=O)O)NC(=O)c1cc(O)n(-c2ccc(F)cc2)n1 (stereo not shown) [Example 523, 3-(3-Fluoro-2-methyl-phenyl)-3-{[1-(4-fluoro-phenyl)-5-hydroxy-1H-pyrazole-3-carbonyl]-amino}-propionic acid] |  | 6.00 to 7.00 | 
O=C(O)CC(NC(=O)c1cc(O)n(-c2ccc(F)cc2)n1)c1cc(F)ccc1Cl (stereo not shown) [Example 524, 3-(2-Chloro-5-fluoro-phenyl)-3-{[1-(4-fluoro-phenyl)-5-hydroxy-1H-pyrazole-3-carbonyl]-amino}-propionic acid] |  | 6.00 to 7.00 | 
COc1ccc(F)cc1C(CC(=O)O)NC(=O)c1cc(O)n(-c2ccc(F)cc2)n1 (stereo not shown) [Example 525, 3-(5-Fluoro-2-methoxy-phenyl)-3-{[1-(4-fluoro-phenyl)-5-hydroxy-1H-pyrazole-3-carbonyl]-amino}-propionic acid] | 5.82 | 4.52 to 6.00 | 
Cc1ccc([C@H](CC(=O)O)NC(=O)c2cc(O)n(-c3ccc(F)cc3)n2)cc1 [Example 526, (S)-3-{[1-(4-Fluoro-phenyl)-5-hydroxy-1H-pyrazole-3-carbonyl]-amino}-3-p-tolyl-propionic acid] | 6.45 | 6.00 to 7.00 | 
O=C(O)CC(NC(=O)c1cc(O)n(-c2ccc(F)cc2)n1)c1ccc(-c2ccccn2)cc1 (stereo not shown) [Example 527, 3-{[1-(4-Fluoro-phenyl)-5-hydroxy-1H-pyrazole-3-carbonyl]-amino}-3-(4-pyridin-2-yl-phenyl)-propionic acid] | 6.82 | 6.00 to 7.00 | 
O=C(O)C[C@H](NC(=O)c1cc(O)n(-c2ccc(F)cc2)n1)c1ccccc1Cl [Example 528, (S)-3-(2-Chloro-phenyl)-3-{[1-(4-fluoro-phenyl)-5-hydroxy-1H-pyrazole-3-carbonyl]-amino}-propionic acid] | 6.38 | 6.00 to 7.00 | 
COc1ccc(-c2ccc(C(CC(=O)O)NC(=O)c3cc(O)n(-c4ccccc4F)n3)cc2)cn1 (stereo not shown) [Example 531] |  | 6.00 to 7.00 | 
Cc1ccccc1[C@H](CC(=O)O)NC(=O)c1cc(O)n(-c2ccccc2C)n1 [Example 532] |  | > 7.00 | 
Cc1ccccc1[C@H](CC(=O)O)NC(=O)c1cc(O)n(Cc2ccccc2)n1 [Example 533] |  | 6.00 to 7.00 | 
COc1cc(C(=O)N[C@@H](CC(=O)O)c2ccccc2C)nn1-c1ccccc1 [Example 534, (S)-3-[(5-Methoxy-1-phenyl-1H-pyrazole-3-carbonyl)-amino]-3-o-tolyl-propionic acid] |  | > 7.00 | 
O=C(O)CC(NC(=O)c1cc(O)n(-c2ccccc2F)n1)c1ccccc1 (stereo not shown) [Example 535] |  | 6.00 to 7.00 | 

Compound | pIC50 [1] | pIC50 [2] | pIC50 [3]
Cc1ccccc1-n1nc(C(=O)NC(CC(=O)O)c2ccc(-c3ccc(F)cc3)cc2)cc1O (stereo not shown) [Example 536] |  | > 7.00 | 
Cc1ccccc1[C@H](CC(=O)O)NC(=O)c1cc(O)n(-c2ccccc2C(F)(F)F)n1 [Example 537] |  | 6.00 to 7.00 | 
O=C(O)CC(NC(=O)c1cc(O)n(Cc2ccccc2)n1)c1ccc(-c2ccc(F)cc2)cc1 (stereo not shown) [Example 538] |  |  | 6.00 to 7.00
O=C(O)CC(NC(=O)c1cc(O)n(-c2ccccc2)n1)c1ccc(-c2ccccc2Cl)cc1 (stereo not shown) [Example 539] |  |  | 6.00 to 7.00
O=C(O)CC(NC(=O)c1cc(O)n(-c2ccccc2Cl)n1)c1ccc(-c2cccc(Cl)c2)cc1 (stereo not shown) [Example 540] |  |  | 6.00 to 7.00
O=C(O)CC(NC(=O)c1cc(O)n(-c2ccccc2F)n1)c1ccc(-c2cccc(Cl)c2)cc1 (stereo not shown) [Example 541] |  |  | 6.00 to 7.00
O=C(O)CC(NC(=O)c1cc(O)n(-c2ccccc2F)n1)c1ccc(-c2ccccc2Cl)cc1 (stereo not shown) [Example 542] |  |  | > 7.00
COc1cc(C(=O)NC(CC(=O)O)c2ccc(-c3ccc(F)cc3)cc2)nn1-c1ccccc1F (stereo not shown) [Example 543] |  |  | 6.00 to 7.00
COc1cc(C(=O)NC(CC(=O)O)c2ccc(-c3ccc(F)cc3)cc2)nn1-c1ccccc1 (stereo not shown) [Example 544] |  |  | 4.52 to 6.00
COc1cc(-c2ccccc2)ccc1C(CC(=O)O)NC(=O)c1cc(O)n(-c2ccccc2)n1 (stereo not shown) [Example 545, 3-[(5-Hydroxy-1-phenyl-1H-pyrazole-3-carbonyl)-amino]-3-(3-methoxy-biphenyl-4-yl)-propionic acid] | 5.95 |  | 4.52 to 6.00
COc1ccc(C(CC(=O)O)NC(=O)c2cc(O)n(-c3ccccc3)n2)c(C(F)(F)F)c1 (stereo not shown) [Example 546, 3-[(5-Hydroxy-1-phenyl-1H-pyrazole-3-carbonyl)-amino]-3-(4-methoxy-2-trifluoromethyl-phenyl)-propionic acid] | 6.27 |  | 6.00 to 7.00
COc1ccc(F)c(C(CC(=O)O)NC(=O)c2cc(O)n(-c3ccccc3)n2)c1 (stereo not shown) [Example 547, 3-(2-Fluoro-5-methoxy-phenyl)-3-[(5-hydroxy-1-phenyl-1H-pyrazole-3-carbonyl)-amino]-propionic acid] | 5.86 |  | 4.52 to 6.00
COc1ccc(C(F)(F)F)cc1C(CC(=O)O)NC(=O)c1cc(O)n(-c2ccccc2)n1 (stereo not shown) [Example 548, 3-[(5-Hydroxy-1-phenyl-1H-pyrazole-3-carbonyl)-amino]-3-(2-methoxy-5-trifluoromethyl-phenyl)-propionic acid] | 5.11 |  | 4.52 to 6.00
COc1ccc(-c2ccccc2)cc1C(CC(=O)O)NC(=O)c1cc(O)n(-c2ccccc2)n1 (stereo not shown) [Example 549, 3-[(5-Hydroxy-1-phenyl-1H-pyrazole-3-carbonyl)-amino]-3-(4-methoxy-biphenyl-3-yl)-propionic acid] | 4.86 |  | 4.52 to 6.00
O=C(O)CC(NC(=O)c1cc(O)n(-c2ccccc2F)n1)c1ccc(-n2cncn2)cc1 (stereo not shown) [Example 550, 3-{[1-(2-Fluoro-phenyl)-5-hydroxy-1H-pyrazole-3-carbonyl]-amino}-3-(4-[1,2,4]triazol-1-yl-phenyl)-propionic acid] | 6.20 |  | 6.00 to 7.00
COc1cc(-c2ccccc2)ccc1C(CC(=O)O)NC(=O)c1cc(O)n(-c2ccccc2F)n1 (stereo not shown) [Example 551, 3-{[1-(2-Fluoro-phenyl)-5-hydroxy-1H-pyrazole-3-carbonyl]-amino}-3-(3-methoxy-biphenyl-4-yl)-propionic acid] | 6.45 |  | 6.00 to 7.00
COc1ccc(C(CC(=O)O)NC(=O)c2cc(O)n(-c3ccccc3F)n2)c(C(F)(F)F)c1 (stereo not shown) [Example 552, 3-{[1-(2-Fluoro-phenyl)-5-hydroxy-1H-pyrazole-3-carbonyl]-amino}-3-(4-methoxy-2-trifluoromethyl-phenyl)-propionic acid] | 6.49 |  | 6.00 to 7.00
COc1ccc(F)c(C(CC(=O)O)NC(=O)c2cc(O)n(-c3ccccc3F)n2)c1 (stereo not shown) [Example 553, 3-(2-Fluoro-5-methoxy-phenyl)-3-{[1-(2-fluoro-phenyl)-5-hydroxy-1H-pyrazole-3-carbonyl]-amino}-propionic acid] | 6.14 |  | 6.00 to 7.00
COc1ccc(C(F)(F)F)cc1C(CC(=O)O)NC(=O)c1cc(O)n(-c2ccccc2F)n1 (stereo not shown) [Example 554, 3-{[1-(2-Fluoro-phenyl)-5-hydroxy-1H-pyrazole-3-carbonyl]-amino}-3-(2-methoxy-5-trifluoromethyl-phenyl)-propionic acid] | 5.73 |  | 4.52 to 6.00
Cc1ccc(C(CC(=O)O)NC(=O)c2cc(O)n(-c3ccccc3F)n2)c(F)c1 (stereo not shown) [Example 555, 3-(2-Fluoro-4-methyl-phenyl)-3-{[1-(2-fluoro-phenyl)-5-hydroxy-1H-pyrazole-3-carbonyl]-amino}-propionic acid] | 6.62 |  | 6.00 to 7.00
